Measurements from patent US8580962B2, “Spiroheterocyclic compounds as mGlu5 antagonists” (Recordati Ireland Ltd., priority 2010, dated 2013).

Tests used:
mGlu5 receptor = target: T1, mGlu5 receptor (Rattus norvegicus, UniProt P31424); assay: Radioligand binding assay at metabotropic glutamate receptor 5 in rat brain; conditions: [3H]MPEP, rat forebrain membranes; read-out: affinity (Ki) for mGlu5 receptor
T1 construct: from tissue; host or cells: rat forebrain (cortex, striatum and hippocampus) membranes, male Sprague Dawley rats
T1 sequence (P31424 21-1203): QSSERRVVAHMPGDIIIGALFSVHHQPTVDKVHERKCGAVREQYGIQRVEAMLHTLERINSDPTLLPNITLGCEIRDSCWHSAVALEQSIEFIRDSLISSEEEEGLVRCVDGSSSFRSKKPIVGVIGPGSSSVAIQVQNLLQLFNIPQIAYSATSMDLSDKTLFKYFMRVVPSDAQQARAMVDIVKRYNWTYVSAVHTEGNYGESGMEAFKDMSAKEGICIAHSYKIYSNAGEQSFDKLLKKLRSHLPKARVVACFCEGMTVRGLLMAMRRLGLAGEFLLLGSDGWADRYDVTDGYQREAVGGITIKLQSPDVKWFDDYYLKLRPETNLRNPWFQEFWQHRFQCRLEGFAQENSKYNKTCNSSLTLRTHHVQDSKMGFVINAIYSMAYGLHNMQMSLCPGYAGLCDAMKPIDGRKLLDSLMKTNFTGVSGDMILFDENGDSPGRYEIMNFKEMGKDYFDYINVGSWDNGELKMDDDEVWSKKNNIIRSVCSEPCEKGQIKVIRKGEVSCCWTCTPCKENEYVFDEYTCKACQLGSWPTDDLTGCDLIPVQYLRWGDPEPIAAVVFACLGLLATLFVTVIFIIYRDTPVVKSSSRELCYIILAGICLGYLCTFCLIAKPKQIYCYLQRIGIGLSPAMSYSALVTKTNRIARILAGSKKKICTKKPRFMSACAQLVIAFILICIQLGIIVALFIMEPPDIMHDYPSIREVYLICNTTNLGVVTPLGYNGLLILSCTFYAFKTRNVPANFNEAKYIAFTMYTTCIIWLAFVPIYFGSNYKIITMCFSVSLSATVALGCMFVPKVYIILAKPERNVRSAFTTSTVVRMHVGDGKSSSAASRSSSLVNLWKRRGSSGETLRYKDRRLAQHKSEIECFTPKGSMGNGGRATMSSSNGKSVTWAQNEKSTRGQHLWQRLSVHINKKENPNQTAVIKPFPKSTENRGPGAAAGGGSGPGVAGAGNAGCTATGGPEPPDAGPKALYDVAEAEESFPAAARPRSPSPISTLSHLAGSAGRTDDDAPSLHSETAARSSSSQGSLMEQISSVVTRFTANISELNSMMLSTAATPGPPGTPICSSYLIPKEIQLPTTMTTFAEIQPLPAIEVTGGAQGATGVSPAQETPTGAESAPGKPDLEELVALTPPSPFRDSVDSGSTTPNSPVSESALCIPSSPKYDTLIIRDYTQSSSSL
Protocol: Radioligand Binding Assay at Metabotropic Glutamate Receptor 5 in Rat Brain.
a) Membrane preparation: male Sprague Dawley rats (200-300 g, Charles River, Italy) were killed by cervical dislocation and the forebrain (cortex, striatum and hippocampus) was homogenized (2×20 sec) in 50 vols of cold 50 mM Tris buffer pH 7.4, using a Politron homogenizer (Kinematica). Homogenates were centrifuged at 48000×g for 15 min, resuspended in 50 vols of the same buffer, incubated at 37° C. for 15 min and centrifuged and resuspended two more times. The final pellets were frozen and stored at −80° C. until use.
b) Binding assay: pellets from rat forebrain were resuspended in 100 vols of 20 mM HEPES, 2 mM MgCl2, 2 mM CaCl2, pH 7.4. The membranes were incubated in a final volume of 1 ml for 60 min at 25° C. with 4 nM [^3H]MPEP in the absence or presence of competing drugs. Non-specific binding was determined in the presence of 10 μM MPEP (Spooren W. et al., Trends Pharmacol Sci. 22, 331-337, 2001). The incubation was stopped by the addition of cold Tris buffer pH 7.4 and rapid filtration through 0.5% polyethyleneimine pretreated Filtermat 1204-401 (Wallac) filters. The filters were then washed with cold buffer and the radioactivity retained on the filters was counted by liquid scintillation spectrometry. […]

conscious rats = assay: Effect on cystometry in conscious rats (bladder volume capacity); type: in vivo, rat; conditions: for MED (Minimal Effective Dose that induces statistically significant increase of bladder volume capacity): oral administration; for increase of bladder volume capacity: orally
Protocol: Male Sprague-Dawley rats [Crl: CD® (SD) IGS BR] of 300-400 g b.w. supplied by Charles River Italia were used. The animals were housed with free access to food and water and maintained on a forced 12-hour-light/12-hour-dark cycle at 22-24° C. of temperature, except during the experiment. To quantify urodynamic parameters in conscious rats, cystometrographic studies were performed according to the procedure previously reported (Guarneri et al., Pharmacol. Res. 24: 175, 1991).
Briefly, the rats were anaesthetised by intraperitoneal administration of 3 ml/kg of Equithensin solution (pentobarbital 30 mg/kg and chloral hydrate 125 mg/kg) and placed in a supine position. An approximately 10 mm long midline incision was made in the shaved and cleaned abdominal wall. The urinary bladder was gently freed from adhering tissues, emptied and then cannulated via an incision in the bladder body, using a polyethylene cannula (0.58 mm internal diameter, 0.96 mm external diameter) which was permanently sutured with silk thread. The cannula was exteriorised through a subcutaneous tunnel in the retroscapular area, where it was connected to a plastic adapter in order to avoid the risk of removal by the animal. For drug testing, the rats were utilised one day after implantation.
On the day of the experiment, the rats were placed in modified Bollman cages, i.e., restraining cages that were large enough to permit the rats to adopt a normal crouched posture, but narrow enough to prevent turning around. […] The intraluminal-pressure signal during infusion of saline into the bladder (cystometrogram) was continuously recorded on a polygraph (Rectigraph-8K San-ei with BM614/2 amplifier from Biomedica Mangoni) or stored on PC by data acquisition system (PowerLab, Chart 4 software, AD Instruments). From the cystometrogram, bladder volume capacity (BVC) was evaluated. […] Basal BVC value was evaluated as the mean of the values observed in the cystometrograms recorded in an initial period of 30-60 minutes. […] The bladder infusion restarted and changes in BVC were evaluated from the mean values obtained in the cystometrograms observed during 1, 2, and 3 hours after treatment. […]
Each experimental group was composed of 4-11 animals. All data were expressed as mean±standard error. The percent change of BVC versus the basal value, as well as Δ value (difference in ml) of BVC (BVC at time “x” minus basal value), were also evaluated for each rat/time. […]
Statistical analysis on BVC values, as well as on Δ values, was performed by S.A.S./STAT software, version 6.12. The difference between vehicle and active treatment effect was evaluated on Δ values of BVC, whereas the difference between the values at different times versus the basal values was evaluated on original BVC data.

Structure (SMILES)	Ki (mGlu5 receptor) [nM]	MED (Minimal Effective Dose that induces statistically significant increase of bladder volume capacity) (conscious rats) [mg/kg]	increase of bladder volume capacity (conscious rats; 1 mg/kg)	increase of bladder volume capacity (conscious rats; 3 mg/kg, statistically significant from the vehicle group after 3 hours from treatment)
CON(C)C(=O)N1CCC2(CC(C#Cc3cccc(Cl)c3)=NO2)C1 (stereo not drawn) [Example 110, 7-[2-(3-Chlorophenyl)ethynyl]-N-methoxy-N-methyl-9-oxa-3,8-diazaspiro[4.4]non-7-ene-3-carboxamide]	1.49			
Cc1ccc([N+](=O)[O-])c(N2CCC3(CC2)CC(C#Cc2cccc(Cl)c2)=NO3)n1 [Example 12, 3-[(3-Chlorophenyl)ethynyl]-8-(6-methyl-3-nitropyridin-2-yl)-1-oxa-2,8-diazaspiro[4.5]dec-2-ene]	3.88			
Cc1nc(C#Cc2cccnc2)cs1 [MTEP]		3	only a slight increase	sustained increase
Clc1cccc(C#CC2=NOC3(CCC4(CCCO4)CC3)C2)c1 (single isomer, unassigned) [Example 78, 3-[(3-Chlorophenyl)ethynyl]-1,9-dioxa-2-azadispiro[4.2.4.2]tetradec-2-ene]		3		
